Results as given in patent US10478431B2, “Methods for treating a cytomegalovirus infection” (priority 2014, dated 2019).
Structures can show the parent of a compound that is named as a salt.

What was measured:
[1] = tested on: ARPE-19 cells stably transduced with LM2ig; experiment: Viability of ARPE-19 cells stably transduced with LM2ig; assay type: cell-based; conditions: FIG. 1, FIG. 2
Experimental: MRCS fibroblasts and life-extended human foreskin fibroblasts (HFFs) (Bresnahan and Shenk, 2000) were maintained in Dulbecco's Modified Eagle's Medium (DMEM) supplemented with 10% fetal bovine serum (FBS) and 50 U/ml penicillin-streptomycin at 37° C. and 5% CO2 in a humidified incubator. ARPE-19 cells were maintained in a 1:1 mixture of DMEM/F-12 (Mediatech Inc.) with 10% FBS (HyClone) and 50 U/ml Penicillin-Streptomycin (Mediatech Inc.). Cells were treated with a final concentration of 1 mM valproic acid (VPA) (Calbiochem™), resuspended in dimethylsulfoxide, for approximately 24 hours before imaging. Cells were treated with a final concentration of 400 nM TSA (Sigma-Aldrich) resuspended in dimethylsulfoxide, for 20-24 hours, a final concentration of 10 ng/mL TNF-α (Sigma-Aldrich) resuspended in phosphate-buffered saline (PBS), or a final concentration of 1 mM VPA (Calbiochem) for approximately 24 hours before imaging.
Standard lentiviral cloning was used to create minimal major immediate early (MIE) circuits (Dull et al., 1998). The minimal MIEP-IE2-GFP and MIEP-GFP circuits are driven by a full-length ˜2.5 kb MIE promoter-enhancer (MIEP) that spans the sequence from the MIEP modulator at the 5′ edge to the junction of immediate early (IE) exons 1 and 2. The MIEP was polymerase chain reaction (PCR)-cloned from AD169 into pLEIGW in place of the EF1a promoter. This full-length MIEP drives an IE2-IRES-GFP or mCherry-IRES-GFP cassette. IE2 was cloned from pRSV-IE86 (a gift from Jay Nelson). ARPE-19 cells were infected and fluorescence-activated cell sorter (FACS) sorted for green fluorescent protein (GFP) fluorescence to create stably expressing cell lines. Cells were treated with Trichostatin-A (TSA) for 17 hours, and GFP expression was quantified by flow cytometry. Live cells were gated by forward-versus-side scattering on a FacsCalibur™ cytometer (BD Biosciences) and mean fluorescence intensity recorded. At least 20,000 live cells were recorded for each experiment and data was analyzed in FlowJo™ (Treestar Inc.).

[2] = tested on: IE2 negative feedback (LM2ig "low" cells); experiment: LM2ig "low" drug screen (4 day induction, high throughput flow cytometry); assay type: cell-based, human CMV (hCMV); conditions: induction period of 4 days, FIG. 9
Experimental: LM2ig “low” cells (˜0% GFP positive before induction) were treated with agents in duplicate for an induction period of 4 days. During this induction period, the cell culture medium was not changed; images were taken every day for 4 days. On the final day, high throughput flow cytometry was carried out on FACS IntelliCyt. Agents tested were: Hoechst 33258, Hoechst 33342, VPA, TSA, TNF-α, hexamethylene bisacetamide (HMBA), phorbol myristate acetate (PMA), neotroposin, distamycin, DAPI, gemcitabine, prednisolone, suberanilohydroxamic acid (SAHA), (2E)-N-hydroxy-3-[4-({[2-(2-methyl-1H-indol-3-yl)ethyl]amino}methyl)phenyl]acrylamide (panobinostat), thapsigargin, JQ1, prostratin, dimizane acetate, pentamidine, or bendamustine.

[3] = tested on: Rhesus CMV (RhCMV); experiment: Rhesus CMV viral replication kinetics on rhesus fibroblast cells; assay type: cell-based, rhesus monkey
Experimental: Murine CMV (MCMV) replication kinetics were performed in BALB/c mice using the Smith strain of MCMV as previously described (Orr et al., 2010) and on NIH 3T3 cells using same methods as for HCMV. Rhesus CMV (RhCMV) viral replication kinetics were performed on rhesus fibroblast cells as described in (Lilja et al., 2008).

[4] = tested on: HCMV; experiment: HCMV infection across a range of virus concentrations, 10 days post-infection; assay type: cell-based, human CMV (hCMV); conditions: wide range of virus concentrations, FIG. 23
Description: All time points were taken at 10 days post-infection as described in Teng et al. Cell 2012 (cited herein).

[5] = tested on: IE2 circuit in clinically derived CMV isolate TB40E; experiment: Flow cytometry of TB40E infected ARPE cells; assay type: cell-based, human CMV (hCMV); conditions: 17 h and 20 h post infection, FIG. 21
Experimental: Flow cytometry was performed on TB40E infected ARPE cells at 17 h and 20 h post infection. The data was analyzed as described in Teng et al. Cell 2012, cited herein.

[6] = tested on: CRS sequences (tetranucleotide motif TTTA); experiment: bisBenzimide binding assay (fluorescence) with CRS sequences; design: species or system hCMV; conditions: CRS sequence 10 μM, BB33258 10 μM to 1 nM, room temperature, DPBS; FIGS. 15 and 16; trihydrochloride hydrate
Experimental: Serial dilutions for each CRS sequence were prepared. Each CRS sequence was held constant at 10 μM while BB33258 was titrated from 10 μM to 1 nM. All assays were performed at room temperature (˜25° C. in DPBS). Serial dilutions were pipetted into 96-well glass bottom plate and allowed to equilibrate for 3 hours at room temperature in the dark. Plates were then assayed for fluorescence intensity using Perkin-Elmer EnSpyre multimode plate reader. Scans from 370 nm to 580 nm for each sequence were obtained. Dilution concentrations and BB33258 combinations that saturated the PMT were excluded.

[7] = tested on: IE2; experiment: Quantitative Western blot of IE2; assay type: cell-based, human CMV (hCMV); conditions: with increasing Hoechst 33258 exposure
Experimental: Cell monolayers were rinsed in PBS buffer, and cells from each well were scraped into 50 μl A of RIPA buffer and stored at −80° C. For analysis, samples were thawed and quantitated for total protein content using a modified Lowry assay (BioRad DC protein assay kit). Equivalent amounts of total protein (10 μg) were added to appropriate volumes of 4× sample loading buffer (50 mM Tris-HCl pH 6.8, 2% sodium docecyl sulfate (SDS), 10% glycerol, 1% beta-mercaptoethanol, 12.5 mM EDTA, and 0.02% bromophenol blue) and heated at 95° C. for 5 minutes. Protein samples were loaded and separated on precast SDS polyacrylamide gel electrophoresis (PAGE) 10% or 7.5% bisacrylamide gels (BioRad). Protein transfer and blot preparation were handled as previously described (Bolovan-Fritts et al., 2004). For detection of protein bands, primary mouse monoclonal antibody against a shared epitope present in IE1 and IE2 at 1:100 (MAB810, Millipore). Beta tubulin was used as a normalization marker, and detected by a primary rabbit anti-beta tubulin antibody (926-42211, LiCor) used at a dilution of 1:2000. The secondary antibody for IE2 detection used was a donkey anti-mouse conjugated to IR dye 800CW (926-32212, LiCor) at a dilution of 1:20,000. […] Blots were scanned using a LiCor Odyssey Infrared Imaging system and software analysis for quantitation.

For `CN1CCN(c2ccc3[nH]c(-c4ccc5[nH]c(-c6ccc(O)cc6)nc5c4)nc3c2)CC1` [Hoechst 33258, 2′-(4-hydroxyphenyl)-5-(4-methyl-1-piperazinyl)-2,5′-bi-1H-benzimidazole trihydrochloride hydrate], the “cell viability / cytotoxicity” value [1] was “reduced cell viability”, the “breaking of the IE2 negative feedback (geometric mean of GFP)” value [2] was “specifically break the IE2 negative feedback” and the “cytopathic effect (CPE) and plaque formation” value ([3]; DIC imaging, rhCMV-infected cells) was “reduced cytopathic effect (CPE) and plaque formation”. The rhCMV replication ([3]; FIG. 11) was “inhibited rhCMV replication to an extent similar to Hoechst 33258 inhibition of hCMV replication”, the “inhibitory effect on rhCMV replication at various MOI and after multiple rounds of replication” value ([3]; FIG. 12) was “remains both at high MOI and also after multiple rounds of replication” and the HCMV infection [4] was “inhibits HCMV infection across a wide range of virus concentrations”. For the same compound, the “IE2 circuit / IE2 expression levels” value [5] was “breaks the IE2 circuit and amplifies IE2 expression levels”, the “DNA binding specificity (motif)” value [6] was “binds primarily to a specific tetranucleotide motif (TTTA)” and the “IE2 levels (quantitative Western blot)” value [7] was “increase”.
